Laboratory results taken from US20210292315A1, “SELENIUM-CONTAINING ISOXAZOLAMINE COMPOUND, PREPARATION METHOD THEREFOR, AND USE THEREOF” (SHANGHAI XINGYE PHARMACEUTICAL TECHNOLOGY CO., LTD, priority 2018, published 2021).
Like-named read-outs stand apart in the source and are kept apart here.

How the values were obtained:
TNF-α = TNF-α activity inhibiting assay: LPS-stimulated peripheral blood, TNF-α by ELISA; format: cell-based, human; conditions: LPS 10 ng/mL, 6 hours, diluted peripheral blood from healthy volunteers, read-out: TNF-α inhibition (%)
Procedure: Methods: Peripheral blood from healthy volunteers was collected with EDTA anticoagulant tubes. After being diluted 5-fold with 1640 medium (Gibco, USA), the blood was added to 96-well cell culture plates (Costar, USA) and then treated with 10 μL solution of the compound of general formula (I) of the present invention in DMSO (Sigma, USA), and the final concentration of DMSO was 0.2%. After incubation for 60 minutes in an incubator at 37° C. under 5% CO2, 10 μL LPS (Sigma, USA) was added to the reaction system, and the final concentration was 10 ng/mL. After further culturing for 6 hours in the incubator at 37° C. under 5% CO2, the supernatant was collected. The content of TNF-α was determined by ELISA (BD Biosciences, USA). Absorbance was detected at OD450 nm with a microplate reader, with GD 650 nm as reference. The control, a solution containing 0.2% DMSO medium, was as 0% inhibition. Raw data and standard curves were recorded. The four-parameter drug inhibition curve was plotted by XL-fit software and the inhibition rate of each compound was calculated.

[1] = target: T1, Thioredoxin Reductase 1 (TrxR1) (Homo sapiens, UniProt Q16881); test: Thioredoxin reductase 1 (TrxR1) activity inhibiting assay, NADPH consumption at 340 nm; format: biochemical; conditions: insulin/Trx/NADPH system, absorbance 340 nm; read-out: TrxR inhibition IC50
T1 sequence (Q16881 151-649 limits assumed): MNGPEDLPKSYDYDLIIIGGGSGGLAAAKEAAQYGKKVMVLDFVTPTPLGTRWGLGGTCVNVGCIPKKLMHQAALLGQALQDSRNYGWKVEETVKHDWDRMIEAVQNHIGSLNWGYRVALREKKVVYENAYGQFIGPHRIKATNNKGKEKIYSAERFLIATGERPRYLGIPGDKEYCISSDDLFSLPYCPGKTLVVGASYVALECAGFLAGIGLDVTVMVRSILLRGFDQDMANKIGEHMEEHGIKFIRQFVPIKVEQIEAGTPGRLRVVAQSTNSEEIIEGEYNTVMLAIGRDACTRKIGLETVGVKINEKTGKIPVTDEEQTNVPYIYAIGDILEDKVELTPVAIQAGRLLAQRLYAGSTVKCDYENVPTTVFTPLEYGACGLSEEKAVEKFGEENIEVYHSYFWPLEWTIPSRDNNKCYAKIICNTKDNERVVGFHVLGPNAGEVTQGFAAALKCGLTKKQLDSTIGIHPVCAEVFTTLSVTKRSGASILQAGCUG
Procedure: Working solutions: 0.119 mg/mL of TrxR working solution preparation: 175 μL of TrxR stock solution (0.34 mg/mL) was diluted to 500 μL; 1 mM NADPH working solution preparation, NADPH (5 mg) was dissolved in 12 mL potassium phosphate buffer; 1 mM DTNB working solution preparation: 25 mg DTNB was dissolve in 63 mL DMSO; potassium phosphate buffer system preparation: 0.2 mg/mL bovine serum albumin (BSA) and 1 mM EDTA were added to potassium phosphate buffer at pH 7.4 (K2HPO4/KH2PO4).
Methods: The TrxR1 inhibitory activity study of selenium-containing isoxazolamines in vitro. Insulin, NADPH, Trx, the samples and TrxR1 were added to a microcuvette in order, and subsequently added the work buffer (0.1 mol/L potassium phosphate/2 mmol/L EDTA) to a total volume of 0.5 mL. The concentration of each component in the obtained reaction system is: insulin 130 μmol/L, NADPH […] (Sigma), Trx 4 μmol/L, the added substrate (the selenium-containing isoxazolamines treated samples). After determination of the initial absorption at 340 nm, the enzymatic reaction was started by adding 20 μg extracted TrxR1 proteins, the decrease in absorbance at 340 nm was monitored. One unit of enzymatic activity is defined as the consumption. The activity can be calculated from the extinction coefficient of NADPH, and the unit of enzyme activity is defined as: 1U=ΔA340 nm/min×1000, the TR activity could be calculated with U/L. The results are shown in table 2.

[2] = Glutathione peroxidase (GPx)-like activity assay, coupled NADPH oxidation at 340 nm; format: biochemical; conditions: compound 50 μm, GSH 2.0 mM, pH 7.5, 25° C.; for Initial rate v0, Cum-OOH: peroxide Cum-OOH 1.6 mM; for Initial rate v0, H2O2: peroxide H2O2 1.6 mM; for Initial rate v0, tBuOOH: peroxide tBuOOH 1.6 mM
Procedure: Method: GPX activity of selenium compounds was assayed by ultraviolet spectrophotometry. Glutathione (2.0 mM), EDTA (1 mM), glutathione disulfide reductase (1.7 units mL^−1), and nicotinamide adenine dinucleotide phosphate […] (NADPH; 0.4 mM) were mixed intopotassium phosphate buffer (0.1 M, pH=7.5). The selenium compounds (50 μm) was added to the above mixture At room temperature (25° C.), and the reaction was started by the addition of H2O2, tBuOOH or Cum-OOH (1.6 mM) respectively. The initial reduction rates were calculated from the rate of NADPH oxidation at 340 nm in a GSH assay. Each initial rate was measured at least three times and calculated from the first 5-10% of the reaction by using 6.22 mM^−1 cm^−1 as the molar extinction coefficient for NADPH. For the peroxidase activity, the rates were corrected for the background reaction between peroxide and thiol.

Structure (SMILES) | IC50 (TNF-α; Homo sapiens) [µM] | IC50 [1] [µM] | IC50 (TNF-α) [µM] | also measured
O=C1CCC(n2[se]c3ccccc3c2=O)C(=O)N1 (stereo not shown) [Compound 1] | 10 to 100 | 5 to 50 |  | Initial rate v0, Cum-OOH [2]: 124.5 ± 7.6 μm min^−1; Initial rate v0, H2O2 [2]: 109.7 ± 2.1 μm min^−1; Initial rate v0, tBuOOH [2]: 42.0 ± 3.3 μm min^−1
O=C1CCC(n2[se]c3cccc([N+](=O)[O-])c3c2=O)C(=O)N1 (stereo not shown) [Compound 2] | 1 to 10 | 5 to 50 |  | 
Nc1cccc2[se]n(C3CCC(=O)NC3=O)c(=O)c12 (stereo not shown) [Compound 3] | < 1 |  |  | 
O=C1CCC(n2[se]c3ccc(F)cc3c2=O)C(=O)N1 (stereo not shown) [Compound 4] | 10 to 100 | < 5 |  | 
O=C1CCC(n2[se]c3c([N+](=O)[O-])cccc3c2=O)C(=O)N1 (stereo not shown) [Compound 5] | 1 to 10 | 50 to 100 |  | 
Nc1cccc2c(=O)n(C3CCC(=O)NC3=O)[se]c12 (stereo not shown) [Compound 6] |  |  | < 1 | 
O=C1CCC(n2[se]c3cc(F)ccc3c2=O)C(=O)N1 (stereo not shown) [Compound 7] | 10 to 100 | < 5 |  | Initial rate v0, Cum-OOH [2]: 142.2 ± 8.2 μm min^−1; Initial rate v0, H2O2 [2]: 128.2 ± 2.0 μm min^−1; Initial rate v0, tBuOOH [2]: 49.3 ± 5.0 μm min^−1
O=C1CCC(n2[se]c3cc(Cl)ccc3c2=O)C(=O)N1 (stereo not shown) [Compound 8] | 10 to 100 | 5 to 50 |  | 
CC(=O)Nc1cccc2c(=O)n(C3CCC(=O)NC3=O)[se]c12 (stereo not shown) [Compound 9] | 10 to 100 | 5 to 50 |  | 
O=C1CCC(n2[se]c3c(F)cccc3c2=O)C(=O)N1 (stereo not shown) [Compound 10] | 1 to 10 | < 5 |  | 
COc1cccc2c(=O)n(C3CCC(=O)NC3=O)[se]c12 (stereo not shown) [Compound 11] |  |  | 1 to 10 | 
COc1cc2[se]n(C3CCC(=O)NC3=O)c(=O)c2cc1OC (stereo not shown) [Compound 13] | 1 to 10 | < 5 |  | 
COc1cc2c(=O)n(C3CCC(=O)NC3=O)[se]c2c(OC)c1OC (stereo not shown) [Compound 14] |  |  | < 1 | 
Cc1cccc2c(=O)n(C3CCC(=O)NC3=O)[se]c12 (stereo not shown) [Compound 15] |  |  | < 1 | 
N#Cc1cccc2c(=O)n(C3CCC(=O)NC3=O)[se]c12 (stereo not shown) [Compound 16] | 1 to 10 | 5 to 50 |  | 
CC1(C)S[C@@H]2[C@H](n3[se]c4ccccc4c3=O)C(=O)N2[C@H]1C(=O)O [Compound 17] | > 100 | < 5 |  | 
CC1(C)S[C@@H]2[C@H](n3[se]c4ccc(F)cc4c3=O)C(=O)N2[C@H]1C(=O)O [Compound 18] |  |  | > 100 | 
O=c1c2ccccc2[se]n1C12CC3CC(CC(O)(C3)C1)C2 [Compound 19] |  |  | 10 to 100 | Initial rate v0, Cum-OOH [2]: 34.2 ± 1.5 μm min^−1; Initial rate v0, H2O2 [2]: 99.7 ± 1.9 μm min^−1; Initial rate v0, tBuOOH [2]: 32.3 ± 3.5 μm min^−1
O=c1c2cc(F)ccc2[se]n1C12CC3CC(CC(O)(C3)C1)C2 [Compound 20] |  |  | 10 to 100 | 
O=c1c2ccccc2[se]n1-c1nc2ccc(OC(F)(F)F)cc2s1 [Compound 22] | 1 to 10 | < 5 |  | 
COc1ccc2nc(-n3[se]c4ccccc4c3=O)sc2c1 [Compound 23] |  | 5 to 50 | 10 to 100 | 

Structure (SMILES) | IC50 (TNF-α; Homo sapiens) [µM] | IC50 [1] [µM] | IC50 (TNF-α) [µM] | also measured
O=C1CC(n2[se]c3ccccc3c2=O)C(=O)N1 (stereo not shown) [Compound 24] |  |  | 10 to 100 | 
COc1ccc2[se]n(C3CC(=O)NC3=O)c(=O)c2c1 (stereo not shown) [Compound 25] | 10 to 100 | 5 to 50 |  | 
O=C1CC(n2[se]c3cc(F)ccc3c2=O)C(=O)N1 (stereo not shown) [Compound 26] |  |  | 10 to 100 | Initial rate v0, Cum-OOH [2]: 164.5 ± 9.1 μm min^−1; Initial rate v0, H2O2 [2]: 145.2 ± 3.4 μm min^−1; Initial rate v0, tBuOOH [2]: 55.7 ± 5.2 μm min^−1
O=C1CC(n2[se]c3c(F)cccc3c2=O)C(=O)N1 (stereo not shown) [Compound 27] |  | 5 to 50 | 1 to 10 | 
Cc1cccc2c(=O)n(C3CC(=O)NC3=O)[se]c12 (stereo not shown) [Compound 28] |  |  | < 1 | 
COc1cccc2c(=O)n(-c3nc4ccc(OC(F)(F)F)cc4s3)[se]c12 [Compound 30] | 10 to 100 | < 5 |  | 
O=C1c2ccccc2[Se](=O)N1C12CC3CC(CC(O)(C3)C1)C2 (stereo not shown) [Compound 32] | > 100 |  |  | Initial rate v0, Cum-OOH [2]: 11.5 ± 0.2 μm min^−1; Initial rate v0, H2O2 [2]: 36.7 ± 0.8 μm min^−1; Initial rate v0, tBuOOH [2]: 12.0 ± 2.3 μm min^−1
O=C1c2ccccc2[Se](=O)N1c1nc2ccccc2s1 (stereo not shown) [Compound 33] | > 100 |  |  | 
Nc1cccc2c1[Se](=O)N(C1CCC(=O)NC1=O)C2=O (stereo not shown) [Compound 35] |  |  | < 1 | 
O=C1CCC(N2C(=O)c3cc(F)ccc3[Se]2=O)C(=O)N1 (stereo not shown) [Compound 36] |  |  | 10 to 100 | 
CC(=O)Nc1cccc2c1[Se](=O)N(C1CCC(=O)NC1=O)C2=O (stereo not shown) [Compound 37] |  |  | 10 to 100 | 
O=C1CCC(N2C(=O)c3ccc(F)cc3[Se]2=O)C(=O)N1 (stereo not shown) [Compound 39] |  |  | 10 to 100 | 
COc1cccc2c1[Se](=O)N(C1CCC(=O)NC1=O)C2=O (stereo not shown) [Compound 40] | 1 to 10 | 50 to 100 |  | 
O=C1CC(N2C(=O)c3ccccc3[Se]2=O)C(=O)N1 (stereo not shown) [Compound 41] |  |  | 10 to 100 | 
COc1cccc2c1[Se]N(C1CCC(=O)NC1=O)C2 (stereo not shown) [Compound 44] | 1 to 10 |  |  | 
COc1ccc2c(c1)CN(C1CCC(=O)NC1=O)[Se]2 (stereo not shown) [Compound 45] |  | 5 to 50 |  | 
COc1cccc2c1[Se]N(C13CC4CC(CC(O)(C4)C1)C3)C2 [Compound 50] | 10 to 100 |  |  | 
O=c1c2ccccc2[se]n1-c1ccccc1 [Ebselen, reference compound] |  | 50 to 100 |  | 
Nc1cccc2c1CN(C1CCC(=O)NC1=O)C2=O (stereo not shown) [Lenadomide, reference compound] | < 1 |  |  | 
O=C1CCC(N2C(=O)c3ccccc3C2=O)C(=O)N1 (stereo not shown) [Thalidomide, reference compound] | > 100 |  |  | 
